Reference: patent US6525001B1, “Substituted pyrimidine and pyridine herbicides” (Mid-American Commercialization Corporation, priority 1997, dated 2003)

Legend:
Format in all cases: in vivo
[1] = system: cocklebur (Xanthium strumarium); assay: Test C; parameters: key: 0 was no effect; 100 was complete control; details: PREEMERGENCE
[2] = system: hairy beggarticks (Bidens pilosa); assay: Test C; parameters: key: 0 was no effect; 100 was complete control; details: PREEMERGENCE
soybean (Glycine max) = assay: Test C; parameters: key: 0 was no effect; 100 was complete control; details: PREEMERGENCE
[3] = system: wild poinsettia (Euphorbia heterophylla); assay: Test C; details: PREEMERGENCE
[4] = system: purple nutsedge (Cyperus rotundus); assay: Test E pre-/postemergence/post directed; parameters: key: 0 is no injury; 100 is complete control; details: PREEMERGENCE
From the text: (§1) Seeds, tubers, or plant parts of alexandergrass (Brachiaria plantaginea), annual bluegrass (Poa annua), arrowleaf sida (Sida rhombifolia), barnyardgrass (Echinochloa crus-galli), bermudagrass (Cynodon dactylon), citrus (Citrus sinensis), common chickweed (Stellaria media), common purslane (Portulaca oleracea), common ragweed (Ambrosia elatior), common groundsel (Senecio vulgaris), dallisgrass (Paspalum dilatatum), goosegrass (Eleusine indica), green foxtail (Setaria viridis), guineagrass (Panicum maximum), itchgrass (Rottboellia exaltata), johnson grass (Sorghum halepense), kochia (Kochia scoparia), large crabgrass (Digitaria sanguinalis), leafy spurge (Euphorbia esula), pitted morningglory (Ipomoea lacunosa), purple nutsedge (Cyperus rotundus), quackgrass (Agropyron repens), Russian thistle (Salsola kali), sandbur (Cenchrus echinatus), sourgrass (Trichachne insularis), Spanishneedles (Bidens bipinnata), sugarcane (Saccharum officinarum), surinam grass (Brachiaria decumbens) and tall mallow (Malva sylvestris) were planted into greenhouse pots of flats containing greenhouse planting medium. Plant species were grown grown in separate pots or individual compartments. Preemergence applications were made within one day of planting the seed or plant part. Postemergence applications were applied when the plants were in the two to four leaf stage (three to twenty cm).
(§2) Test chemicals were formulated in a non-phytotoxic solvent mixture which included a surfactant and applied preemergence to the soil surface, postemergence to the plants or as a post directed spray to plants and soil at the base of the target species. Untreated control plants and treated plants were placed in the greenhouse and visually evaluated for injury 13 to 21 days after herbicide application. Plant response ratings, summarized in Table E, are based on a 0 to 100 scale where 0 is no injury and 100 is complete control. A dash (−) response means no test result.

[5] = system: sandbur (Cenchrus echinatus); assay: Test E pre-/postemergence/post directed; parameters: key: 0 is no injury; 100 is complete control; details: PREEMERGENCE, Rate 32 g/ha
From the text: as §1, §2

[6] = system: Spanishneedles (Bidens bipinnata); assay: Test E pre-/postemergence/post directed; details: PREEMERGENCE
From the text: as §1, §2

[7] = system: alexandergrass (Brachiaria plantaginea); assay: Test E pre-/postemergence/post directed; details: PREEMERGENCE
From the text: as §1, §2

[8] = system: bermudagrass (Cynodon dactylon); assay: Test E pre-/postemergence/post directed; details: PREEMERGENCE
From the text: as §1, §2

[9] = system: common ragweed (Ambrosia elatior); assay: Test E pre-/postemergence/post directed; details: PREEMERGENCE
From the text: as §1, §2

[10] = system: johnson grass (Sorghum halepense); assay: Test E pre-/postemergence/post directed; details: PREEMERGENCE
From the text: as §1, §2

[11] = system: large crabgrass (Digitaria sanguinalis); assay: Test E pre-/postemergence/post directed; details: PREEMERGENCE
From the text: as §1, §2

[12] = system: sandbur (Cenchrus echinatus); assay: Test E pre-/postemergence/post directed; details: PREEMERGENCE
From the text: as §1, §2

[13] = system: common groundsel (Senecio vulgaris); assay: Test E pre-/postemergence/post directed; parameters: key: 0 is no effect; 100 is complete control; details: PREEMERGENCE
Summary of the method: (§3)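 Greenhouse pots; compound in non-phytotoxic solvent with surfactant, sprayed preemergence within one day of planting, postemergence at two to four leaf stage (three to twenty cm), or post directed to plant base and soil. Visual injury rated 13 to 21 days after application, 0 (none) to 100 (complete control).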

[14] = system: goosegrass (Eleusine indica); assay: Test E pre-/postemergence/post directed; parameters: key: 0 is no effect; 100 is complete control; details: PREEMERGENCE
Summary of the method: as §3

[15] = system: large crabgrass (Digitaria sanguinalis); assay: Test E pre-/postemergence/post directed; parameters: key: 0 is no effect; 100 is complete control; details: PREEMERGENCE
Summary of the method: as §3

[16] = system: sourgrass (Trichachne insularis); assay: Test E pre-/postemergence/post directed; parameters: key: 0 is no effect; 100 is complete control; details: PREEMERGENCE
Summary of the method: as §3

[17] = system: surinam grass (Brachiaria decumbens); assay: Test E pre-/postemergence/post directed; parameters: key: 0 is no effect; 100 is complete control; details: PREEMERGENCE
Summary of the method: as §3

Cc1cnc(-n2ccc(C(F)(F)F)n2)nc1Cc1cccc(OC(F)(F)F)c1 [Compound 42]
35: Plant response rating, Soybean (soybean (Glycine max); Rate 140 g/ha)
40: Plant response rating, Alexandergrass ([7]; Rate 64 g/ha) | Plant response rating, Sandbur ([12]; Rate 64 g/ha)
90: Plant response rating, H. beggarticks ([2]; Rate 140 g/ha) | Plant response rating, Spanishneedles ([6]; Rate 250 g/ha) | Plant response rating, Alexandergrass ([7]; Rate 125 g/ha) | Plant response rating, Alexandergrass ([7]; Rate 250 g/ha) | Plant response rating, Bermudagrass ([8]; Rate 32 g/ha) | Plant response rating, Com. ragweed ([9]; Rate 125 g/ha) | Plant response rating, Com. ragweed ([9]; Rate 250 g/ha) | Plant response rating, Johnsongrass ([10]; Rate 64 g/ha) | Plant response rating, Johnsongrass ([10]; Rate 125 g/ha) | Plant response rating, Large crabgrass ([11]; Rate 64 g/ha)
85: Plant response rating, Wild poinsettia ([3]; Rate 140 g/ha)
0: Plant response rating, Cocklebur ([1]; Rate 35 g/ha) | Plant response rating, H. beggarticks ([2]; Rate 35 g/ha) | Plant response rating, Soybean (soybean (Glycine max); Rate 35 g/ha) | Plant response rating, Sandbur [5]
50: Plant response rating, Com. ragweed ([9]; Rate 32 g/ha) | Plant response rating, Large crabgrass ([11]; Rate 32 g/ha)
60: Plant response rating, Cocklebur ([1]; Rate 140 g/ha)
5: Plant response rating, Soybean (soybean (Glycine max); Rate 70 g/ha)
25: Plant response rating, Wild poinsettia ([3]; Rate 35 g/ha)
20: Plant response rating, Purple nutsedge ([4]; Rate 32 g/ha) | Plant response rating, Spanishneedles ([6]; Rate 32 g/ha) | Plant response rating, Spanishneedles ([6]; Rate 64 g/ha) | Plant response rating, Alexandergrass ([7]; Rate 32 g/ha)
30: Plant response rating, Wild poinsettia ([3]; Rate 70 g/ha) | Plant response rating, Purple nutsedge ([4]; Rate 64 g/ha) | Plant response rating, Purple nutsedge ([4]; Rate 125 g/ha) | Plant response rating, Purple nutsedge ([4]; Rate 250 g/ha)
100: Plant response rating, Com. groundsel ([13]; Rate 64 g/ha) | Plant response rating, Com. groundsel ([13]; Rate 125 g/ha) | Plant response rating, Com. groundsel ([13]; Rate 250 g/ha) | Plant response rating, Goosegrass ([14]; Rate 64 g/ha) | Plant response rating, Goosegrass ([14]; Rate 125 g/ha) | Plant response rating, Goosegrass ([14]; Rate 250 g/ha) | Plant response rating, Large crabgrass ([15]; Rate 125 g/ha) | Plant response rating, Large crabgrass ([15]; Rate 250 g/ha) | Plant response rating, Sourgrass ([16]; Rate 32 g/ha) | Plant response rating, Sourgrass ([16]; Rate 64 g/ha) | Plant response rating, Sourgrass ([16]; Rate 125 g/ha) | Plant response rating, Sourgrass ([16]; Rate 250 g/ha) | Plant response rating, Surinam grass ([17]; Rate 125 g/ha) | Plant response rating, Surinam grass ([17]; Rate 250 g/ha)
98: Plant response rating, Bermudagrass ([8]; Rate 125 g/ha) | Plant response rating, Bermudagrass ([8]; Rate 250 g/ha) | Plant response rating, Goosegrass ([14]; Rate 32 g/ha)
75: Plant response rating, Com. ragweed ([9]; Rate 64 g/ha)
70: Plant response rating, Sandbur ([12]; Rate 125 g/ha) | Plant response rating, Sandbur ([12]; Rate 250 g/ha)
10: Plant response rating, Johnsongrass ([10]; Rate 32 g/ha)
95: Plant response rating, Bermudagrass ([8]; Rate 64 g/ha) | Plant response rating, Johnsongrass ([10]; Rate 250 g/ha)
